In experiment [1] the target is Xanthine oxidase (from bovine milk, Sigma) (Bos taurus (Bovine), UniProt P80457). The experiment is described as follows: Xanthine oxidase inhibitory activity. Format: biochemical. Particulars: xanthine substrate, 10 minutes at room temperature, absorbance at 290 nm. The protocol: (1) Preparation of Test Compounds
Test compounds were dissolved in DMSO (Wako) at 40 mM concentration and then diluted to intended concentrations with phosphate-buffered saline (PBS).
(2) Method for Measurement
Xanthine oxidase (from bovine milk, Sigma) was prepared with phosphate-buffered saline (PBS) at 0.02 units/mL, and then the solution was added to 96 well plates at 50 μL/well. In addition, test compounds diluted with PBS were added at 50 μL/well. Xanthine (Wako) at 200 μM prepared with PBS was added at 100 μL/well, and the reaction was conducted for 10 minutes at room temperature. Absorbance at 290 nm was measured using a microplate reader SpectraMax Plus 384 (Molecular device). The absorbance under a condition without xanthine is 0%, and control without test compounds is 100%. Fifty % inhibitory concentration of a test compound (IC50) was calculated (Table 60). Ex. No in the table indicates Example number.

For experiment [2], the system named is BBMV from human kidney cortex (uric acid uptake). The experiment is described as follows: Inhibitory activity of uric acid transport with brush-border membrane vesicles (BBMV). In kind it is biochemical. The following applies: 10 μM test compound; uptake of 14C-labeled uric acid into human kidney cortex BBMV, 20 seconds. The protocol:
Inhibitory activity of uric acid transport of test compounds was performed on the basis of methods described in a reference (Am. J. Physiol. 266 (Renal Fluid Electrolyte Physiol. 35): F797-F805, 1994) with a partial modification.
(1) Preparation of BBMV from Human Kidney Cortex
BBMV from human kidney cortex were purchased from KAC. Renal cortex was dissected from human kidney and cut into small pieces. Then, the cortex was homogenized in 5 volumes of ice-cold isotonic buffer (300 mM mannitol, 5 mM ethylene glycol-bis-(β-aminoethylether)-N,N,N′,N′-tetraacetic acid (EGTA), 12 mM tris(hydroxymethyl)aminomethane (Tris).HCl, pH 7.4). After adding 1 M magnesium chloride to a final concentration of 12 mM, and then the suspension was mixed and allowed to stand on ice for 15 minutes. […] After centrifugation at 30,000×g for 30 minutes at 4° C., the pellet was resuspended in buffer 2, and then the protein concentration was determined. […]
BBMV were thawed on ice. […] The uptake of uric acid into BBMV was measured by the rapid-filtration technique. […] Furthermore, filters were washed twice with 3 mL of stop solution and dissolved in 10 mL of Filter-Count (PerkinElmer), and the radioactivity was counted in a liquid scintillation counter (PerkinElmer). The radioactivity associated with the filters in the absence of BBMV was used as corrections. […]

Sequence of Xanthine oxidase (from bovine milk, Sigma) (P80457 whole entry): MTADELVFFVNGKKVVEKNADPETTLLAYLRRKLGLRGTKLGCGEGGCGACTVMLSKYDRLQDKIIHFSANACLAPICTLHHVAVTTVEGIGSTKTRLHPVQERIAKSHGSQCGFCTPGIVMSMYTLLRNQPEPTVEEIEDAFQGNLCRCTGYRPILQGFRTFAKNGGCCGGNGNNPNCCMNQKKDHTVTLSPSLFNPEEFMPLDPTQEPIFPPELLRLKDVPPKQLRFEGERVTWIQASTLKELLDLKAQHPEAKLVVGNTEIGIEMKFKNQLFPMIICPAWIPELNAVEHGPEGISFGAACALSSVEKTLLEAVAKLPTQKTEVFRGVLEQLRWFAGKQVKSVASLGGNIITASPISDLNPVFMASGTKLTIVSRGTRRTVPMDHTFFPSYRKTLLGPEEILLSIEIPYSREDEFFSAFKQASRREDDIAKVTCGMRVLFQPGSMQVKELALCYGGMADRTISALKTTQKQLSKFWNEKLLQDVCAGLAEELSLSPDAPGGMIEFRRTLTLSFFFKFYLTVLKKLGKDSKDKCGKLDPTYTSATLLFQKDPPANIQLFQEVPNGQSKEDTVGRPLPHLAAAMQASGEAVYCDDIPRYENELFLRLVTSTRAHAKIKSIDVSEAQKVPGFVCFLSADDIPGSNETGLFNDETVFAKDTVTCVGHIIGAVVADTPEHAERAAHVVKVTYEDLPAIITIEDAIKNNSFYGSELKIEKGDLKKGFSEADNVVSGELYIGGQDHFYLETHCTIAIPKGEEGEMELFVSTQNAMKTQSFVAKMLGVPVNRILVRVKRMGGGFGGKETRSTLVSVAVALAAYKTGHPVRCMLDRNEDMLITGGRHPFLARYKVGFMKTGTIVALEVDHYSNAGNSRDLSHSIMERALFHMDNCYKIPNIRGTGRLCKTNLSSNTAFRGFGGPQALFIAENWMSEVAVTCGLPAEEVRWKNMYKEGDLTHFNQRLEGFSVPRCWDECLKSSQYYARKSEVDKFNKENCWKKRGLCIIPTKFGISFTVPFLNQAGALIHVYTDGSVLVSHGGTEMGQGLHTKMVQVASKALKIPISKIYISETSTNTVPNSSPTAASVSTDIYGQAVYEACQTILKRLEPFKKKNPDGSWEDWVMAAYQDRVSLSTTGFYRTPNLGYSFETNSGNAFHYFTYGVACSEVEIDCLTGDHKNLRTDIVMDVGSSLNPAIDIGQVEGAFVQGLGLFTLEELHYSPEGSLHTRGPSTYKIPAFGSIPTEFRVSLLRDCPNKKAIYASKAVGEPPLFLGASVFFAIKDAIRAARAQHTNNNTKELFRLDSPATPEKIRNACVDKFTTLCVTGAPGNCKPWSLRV

`CC(C)c1ccc2c(C#N)cn(-c3ccc(C(=O)O)c(O)c3)c2c1` [Example 237] gave a 50% inhibitory concentration (IC50) in experiment [1] of 12.6 nM. The inhibition % in experiment [2] is on record as 64%.

The record behind these values is patent US8993616B2, “(aza)indole derivative and use thereof for medical purposes” (Kissei Pharmaceutical Co., Ltd., priority 2007, dated 2015).
